The source made the active and inactive calls. The rule behind the calls is not given here.
System: CCRIS mutagenicity, Ames/micronucleus/aberration tests
Assay: CCRIS mutagenicity studies
[1] = Test System: AMES SALMONELLA TYPHIMURIUM, Strain/Indicator: TA98, Metabolic Activation: NONE, Method: PREINCUBATION
[2] = Test System: AMES SALMONELLA TYPHIMURIUM, Strain/Indicator: TA98, Metabolic Activation: NONE, Method: STANDARD PLATE
[3] = Test System: AMES SALMONELLA TYPHIMURIUM, Strain/Indicator: TA100, Metabolic Activation: NONE, Method: PREINCUBATION
[4] = Test System: AMES SALMONELLA TYPHIMURIUM, Strain/Indicator: TA100, Metabolic Activation: NONE, Method: STANDARD PLATE

CCN(CC)C(=S)SSC[C@H](NC(C)=O)C(=O)O
mutagenic call [1]: inactive; negative | mutagenic call [2]: inactive; negative | mutagenic call (Test System: AMES SALMONELLA TYPHIMURIUM, Strain/Indicator: TA98, Metabolic Activation: RAT, LIVER, S-9, AROCLOR 1254, Method: PREINCUBATION): inactive; negative | mutagenic call (Test System: AMES SALMONELLA TYPHIMURIUM, Strain/Indicator: TA98, Metabolic Activation: RAT, LIVER, S-9, AROCLOR 1254, Method: STANDARD PLATE): inactive; negative | mutagenic call [3]: inactive; negative | mutagenic call [4]: inactive; negative | mutagenic call (Test System: AMES SALMONELLA TYPHIMURIUM, Strain/Indicator: TA100, Metabolic Activation: RAT, LIVER, S-9, AROCLOR 1254, Method: PREINCUBATION): inactive; negative | mutagenic call (Test System: AMES SALMONELLA TYPHIMURIUM, Strain/Indicator: TA100, Metabolic Activation: RAT, LIVER, S-9, AROCLOR 1254, Method: STANDARD PLATE): inactive; negative

COP(=O)(OC)C(O)C(Cl)(Cl)Cl (stereo not drawn)
mutagenic call (End Point: IN VIVO MICRONUCLEUS, Test System: PREIMPLANTATION EMBRYOS, Species: MOUSE, Strain/Sex: ICR FEMALE/EMBRYO, Route: MATERNAL SINGLE IP DOSE, EMBRYO HARVEST ON G.D 3): active; positive | mutagenic call (End Point: In vivo micronucleus, Test System: Micronucleated, binucleated and multinucleated hepatocytes, Species: Mouse, Strain/Sex: ddY/Male, Route: Intravenous): active; positive for binucleated and multinucleated cells when agent administered after | mutagenic call (Test System: AMES SALMONELLA TYPHIMURIUM, Strain/Indicator: TA97, Metabolic Activation: NONE, Method: SPOT TEST): inactive; negative | mutagenic call (Test System: AMES SALMONELLA TYPHIMURIUM, Strain/Indicator: TA97, Metabolic Activation: NONE, Method: STANDARD PLATE): inactive; negative | mutagenic call (Test System: AMES SALMONELLA TYPHIMURIUM, Strain/Indicator: TA97, Metabolic Activation: RAT, LIVER, S-9, NAPHTHOFLAVONE AND PHENOBARBITAL, Method: STANDARD PLATE): inactive; negative | mutagenic call (Test System: AMES SALMONELLA TYPHIMURIUM, Strain/Indicator: TA97, Metabolic Activation: RAT, LIVER, S-9, PHENOBARBITAL AND NAPHTHOFLAVONE, Method: SPOT TEST): inactive; negative | mutagenic call (Test System: AMES SALMONELLA TYPHIMURIUM, Strain/Indicator: TA98, Metabolic Activation: HAMSTER, LIVER, S-9, AROCLOR 1254 (10%), Method: PREINCUBATION): inactive; negative | mutagenic call [1]: inactive; negative | mutagenic call (Test System: AMES SALMONELLA TYPHIMURIUM, Strain/Indicator: TA98, Metabolic Activation: NONE, Method: SPOT TEST): inactive; negative | mutagenic call [2]: inactive; negative | mutagenic call (Test System: AMES SALMONELLA TYPHIMURIUM, Strain/Indicator: TA98, Metabolic Activation: RAT, LIVER, S-9, AROCLOR 1254 (10%), Method: PREINCUBATION): inactive; negative | mutagenic call (Test System: AMES SALMONELLA TYPHIMURIUM, Strain/Indicator: TA98, Metabolic Activation: RAT, LIVER, S-9, NAPHTHOFLAVONE AND PHENOBARBITAL, Method: STANDARD PLATE): inactive; negative | mutagenic call (Test System: AMES SALMONELLA TYPHIMURIUM, Strain/Indicator: TA98, Metabolic Activation: RAT, LIVER, S-9, PHENOBARBITAL AND NAPHTHOFLAVONE, Method: SPOT TEST): inactive; negative | mutagenic call (Test System: AMES SALMONELLA TYPHIMURIUM, Strain/Indicator: TA100, Metabolic Activation: HAMSTER, LIVER, S-9, AROCLOR 1254 (10%), Method: PREINCUBATION): inactive; negative | mutagenic call [3]: inactive; negative | mutagenic call (Test System: AMES SALMONELLA TYPHIMURIUM, Strain/Indicator: TA100, Metabolic Activation: NONE, Method: SPOT TEST): inactive; negative | mutagenic call [4]: inactive; negative | mutagenic call (Test System: AMES SALMONELLA TYPHIMURIUM, Strain/Indicator: TA100, Metabolic Activation: RAT, LIVER, S-9, AROCLOR 1254 (10%), Method: PREINCUBATION): inactive; negative | mutagenic call (Test System: AMES SALMONELLA TYPHIMURIUM, Strain/Indicator: TA100, Metabolic Activation: RAT, LIVER, S-9, NAPHTHOFLAVONE AND PHENOBARBITAL, Method: FLUCTUATION TEST): inactive; negative | mutagenic call (Test System: AMES SALMONELLA TYPHIMURIUM, Strain/Indicator: TA100, Metabolic Activation: RAT, LIVER, S-9, NAPHTHOFLAVONE AND PHENOBARBITAL, Method: PREINCUBATION): active; positive | mutagenic call (Test System: AMES SALMONELLA TYPHIMURIUM, Strain/Indicator: TA100, Metabolic Activation: RAT, LIVER, S-9, NAPHTHOFLAVONE AND PHENOBARBITAL, Method: STANDARD PLATE): inactive; negative | mutagenic call (Test System: AMES SALMONELLA TYPHIMURIUM, Strain/Indicator: TA100, Metabolic Activation: RAT, LIVER, S-9, PHENOBARBITAL AND NAPHTHOFLAVONE, Method: SPOT TEST): inactive; negative | mutagenic call (Test System: AMES SALMONELLA TYPHIMURIUM, Strain/Indicator: TA100, Metabolic Activation: S-9 MIX, Method: STANDARD PLATE): active; positive | mutagenic call (Test System: AMES SALMONELLA TYPHIMURIUM, Strain/Indicator: TA104, Metabolic Activation: NONE, Method: PREINCUBATION): active; positive | mutagenic call (Test System: AMES SALMONELLA TYPHIMURIUM, Strain/Indicator: TA104, Metabolic Activation: NONE, Method: STANDARD PLATE): inactive; negative | mutagenic call (Test System: AMES SALMONELLA TYPHIMURIUM, Strain/Indicator: TA104, Metabolic Activation: RAT, LIVER, S-9, NAPHTHOFLAVONE AND PHENOBARBITAL, Method: PREINCUBATION): active; positive | mutagenic call (Test System: AMES SALMONELLA TYPHIMURIUM, Strain/Indicator: TA104, Metabolic Activation: RAT, LIVER, S-9, NAPHTHOFLAVONE AND PHENOBARBITAL, Method: STANDARD PLATE): inactive; negative | mutagenic call (Test System: AMES SALMONELLA TYPHIMURIUM, Strain/Indicator: TA1535, Metabolic Activation: HAMSTER, LIVER, S-9, AROCLOR 1254 (10%), Method: PREINCUBATION): inactive; negative | mutagenic call (Test System: AMES SALMONELLA TYPHIMURIUM, Strain/Indicator: TA1535, Metabolic Activation: NONE, Method: PREINCUBATION): inactive; negative | mutagenic call (Test System: AMES SALMONELLA TYPHIMURIUM, Strain/Indicator: TA1535, Metabolic Activation: NONE, Method: SPOT TEST): inactive; negative | mutagenic call (Test System: AMES SALMONELLA TYPHIMURIUM, Strain/Indicator: TA1535, Metabolic Activation: NONE, Method: STANDARD PLATE): inactive; negative | mutagenic call (Test System: AMES SALMONELLA TYPHIMURIUM, Strain/Indicator: TA1535, Metabolic Activation: RAT, LIVER, S-9, AROCLOR 1254 (10%), Method: PREINCUBATION): inactive; negative | mutagenic call (Test System: AMES SALMONELLA TYPHIMURIUM, Strain/Indicator: TA1535, Metabolic Activation: RAT, LIVER, S-9, NAPHTHOFLAVONE AND PHENOBARBITAL, Method: PREINCUBATION): inactive; negative | mutagenic call (Test System: AMES SALMONELLA TYPHIMURIUM, Strain/Indicator: TA1535, Metabolic Activation: RAT, LIVER, S-9, NAPHTHOFLAVONE AND PHENOBARBITAL, Method: STANDARD PLATE): inactive; negative | mutagenic call (Test System: AMES SALMONELLA TYPHIMURIUM, Strain/Indicator: TA1535, Metabolic Activation: RAT, LIVER, S-9, PHENOBARBITAL AND NAPHTHOFLAVONE, Method: SPOT TEST): inactive; negative | mutagenic call (Test System: AMES SALMONELLA TYPHIMURIUM, Strain/Indicator: TA1537, Metabolic Activation: HAMSTER, LIVER, S-9, AROCLOR 1254 (10%), Method: PREINCUBATION): inactive; negative | mutagenic call (Test System: AMES SALMONELLA TYPHIMURIUM, Strain/Indicator: TA1537, Metabolic Activation: NONE, Method: PREINCUBATION): inactive; negative | mutagenic call (Test System: AMES SALMONELLA TYPHIMURIUM, Strain/Indicator: TA1537, Metabolic Activation: RAT, LIVER, S-9, AROCLOR 1254 (10%), Method: PREINCUBATION): inactive; negative | mutagenic call (Test System: CHINESE HAMSTER V-79, Strain/Indicator: V-79/OUABAIN, Metabolic Activation: NONE): inactive; negative | mutagenic call (Test System: E. COLI, Strain/Indicator: WP2, Metabolic Activation: NONE, Method: STANDARD PLATE): active; positive | mutagenic call (Test System: E. COLI, Strain/Indicator: WP2, Metabolic Activation: RAT, LIVER, S-9, AROCLOR 1254, Method: STANDARD PLATE): active; positive | mutagenic call (Test System: E. COLI, Strain/Indicator: WP2 UVRA, Metabolic Activation: NONE, Method: STANDARD PLATE): active; positive | mutagenic call (Test System: E. COLI, Strain/Indicator: WP2 UVRA, Metabolic Activation: RAT, LIVER, S-9, AROCLOR 1254, Method: STANDARD PLATE): active; positive | mutagenic call (Test System: UDS HUMAN CELLS, Strain/Indicator: EUE LINE/THY INCORP, Metabolic Activation: NONE, Method: AUTORADIOGRAPHY): active; positive | mutagenic call (Test System: UDS HUMAN FIBROBLASTS, Strain/Indicator: THY INCORP (NON-S-PHASE), Metabolic Activation: NONE, Method: LIQUID SCINTILLATION COUNTING): active; positive
